As usually defined, the IC50 is the concentration that inhibits the measured activity by half. One may read the inhibition as the change of the read-out against control, counted positive when it falls.

These results are taken from ChEMBL document CHEMBL1158280, “Specific inhibition of human immunodeficiency virus type 1 reverse transcriptase mediated by soulattrolide, a coumarin isolated from the latex of calophyllum teysmannii” (J Nat Prod, 1996).

For assay [1], the target named is T1, Human immunodeficiency virus type 1 reverse transcriptase (Human immunodeficiency virus 1, UniProt Q72547). Briefly: Inhibition of DNA dependent DNA polymerase activity of HIV1 recombinant reverse transcriptase p66/p51.
Assay [2] addresses T2, DNA polymerase beta (Homo sapiens, UniProt P06746). Briefly: Inhibition of DNA polymerase beta.
The target of assay [3] is T1, Human immunodeficiency virus type 1 reverse transcriptase. Briefly: Inhibition of RNA dependent DNA polymerase activity of HIV1 recombinant reverse transcriptase p66/p51.
The test system of assay [4] is Escherichia coli. Nature of the assay: Inhibition of Escherichia coli RNase H at 495 uM.
Assay [5] has as its target Human immunodeficiency virus type 1 reverse transcriptase (Human immunodeficiency virus 1) (UniProt Q72547). Nature of the assay: Inhibition of RNA dependent DNA polymerase activity of HIV1 recombinant reverse transcriptase p66/p51 at 495 uM.
Assay [6] deals with Avian myeloblastosis virus. Briefly: Inhibition of Avian myeloblastosis virus reverse transcriptase.
A short description of assay [7]: Inhibition of RNA polymerase.
In assay [8] the target is Human immunodeficiency virus type 1 reverse transcriptase (Human immunodeficiency virus 1) (UniProt Q72547). Nature of the assay: Inhibition of DNA dependent DNA polymerase activity of HIV1 recombinant reverse transcriptase p66/p51 at 495 uM.
Assay [9] relates to Avian myeloblastosis virus. Briefly: Inhibition of Avian myeloblastosis virus reverse transcriptase at 495 uM.
The target of assay [10] is T3, DNA polymerase alpha catalytic subunit (Homo sapiens) (UniProt P09884).
T3 sequence (whole entry): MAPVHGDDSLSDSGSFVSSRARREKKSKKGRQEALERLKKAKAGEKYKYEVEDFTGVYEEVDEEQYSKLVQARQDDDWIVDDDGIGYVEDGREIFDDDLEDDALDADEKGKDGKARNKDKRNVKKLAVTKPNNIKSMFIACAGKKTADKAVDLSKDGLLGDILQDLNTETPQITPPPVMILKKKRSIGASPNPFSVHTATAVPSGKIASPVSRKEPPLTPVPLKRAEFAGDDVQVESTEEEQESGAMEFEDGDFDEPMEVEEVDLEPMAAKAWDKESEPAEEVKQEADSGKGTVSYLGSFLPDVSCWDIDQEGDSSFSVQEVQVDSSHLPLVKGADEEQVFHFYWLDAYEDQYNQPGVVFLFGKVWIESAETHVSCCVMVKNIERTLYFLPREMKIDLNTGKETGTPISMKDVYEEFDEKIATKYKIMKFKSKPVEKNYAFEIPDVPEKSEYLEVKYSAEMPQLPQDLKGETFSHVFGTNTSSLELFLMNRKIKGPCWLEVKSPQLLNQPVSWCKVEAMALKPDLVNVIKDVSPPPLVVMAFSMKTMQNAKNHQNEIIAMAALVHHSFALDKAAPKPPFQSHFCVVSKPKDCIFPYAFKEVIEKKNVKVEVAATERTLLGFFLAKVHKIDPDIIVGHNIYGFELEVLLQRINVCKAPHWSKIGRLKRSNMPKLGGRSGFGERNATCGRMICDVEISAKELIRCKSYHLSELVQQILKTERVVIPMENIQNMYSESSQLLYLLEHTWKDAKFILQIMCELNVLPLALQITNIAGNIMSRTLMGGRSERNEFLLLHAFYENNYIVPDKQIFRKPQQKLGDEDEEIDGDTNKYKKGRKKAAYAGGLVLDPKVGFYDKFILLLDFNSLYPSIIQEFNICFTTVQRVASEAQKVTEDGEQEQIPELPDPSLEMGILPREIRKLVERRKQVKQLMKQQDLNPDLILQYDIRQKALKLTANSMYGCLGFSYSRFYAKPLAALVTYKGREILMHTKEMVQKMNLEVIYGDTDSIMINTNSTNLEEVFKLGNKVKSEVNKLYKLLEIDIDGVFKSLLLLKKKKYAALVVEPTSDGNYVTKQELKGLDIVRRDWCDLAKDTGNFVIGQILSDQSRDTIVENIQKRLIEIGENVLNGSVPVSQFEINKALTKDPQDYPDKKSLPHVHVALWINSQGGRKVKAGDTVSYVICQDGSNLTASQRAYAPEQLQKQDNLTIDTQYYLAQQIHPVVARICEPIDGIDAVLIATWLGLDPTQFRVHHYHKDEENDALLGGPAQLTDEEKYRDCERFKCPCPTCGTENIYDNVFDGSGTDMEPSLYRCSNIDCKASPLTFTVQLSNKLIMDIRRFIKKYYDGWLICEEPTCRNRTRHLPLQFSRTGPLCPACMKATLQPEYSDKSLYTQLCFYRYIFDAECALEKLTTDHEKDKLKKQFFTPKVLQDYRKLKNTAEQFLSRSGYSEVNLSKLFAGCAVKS
Briefly: Inhibition of DNA polymerase alpha at 495 uM.

Assay [11] can be described thus: Inhibition of Escherichia coli RNase H.
Assay [12] deals with Human immunodeficiency virus 1. Briefly: Inhibition of TIBO-resistant HIV1 reverse transcriptase p66/p51 Tyr181 mutant expressed in Escherichia coli.
Assay [13] has as its system Human immunodeficiency virus 2. Nature of the assay: Inhibition of HIV2 reverse transcriptase p68/p54 expressed in Escherichia coli.
The target in assay [14] is T3, DNA polymerase alpha catalytic subunit (Homo sapiens). Nature of the assay: (§1) Inhibition of DNA polymerase alpha.
Assay [15] relates to Human immunodeficiency virus 2. Nature of the assay: Inhibition of HIV2 reverse transcriptase p68/p54 expressed in Escherichia coli at 495 uM.
The nature of assay [16]: Inhibition of RNA polymerase at 495 uM.
For assay [17], the target named is T2, DNA polymerase beta. Nature of the assay: Inhibition of DNA polymerase beta at 495 uM.
Assay [18] deals with Human immunodeficiency virus 1. Nature of the assay: Inhibition of TIBO-resistant HIV1 reverse transcriptase p66/p51 Tyr181 mutant expressed in Escherichia coli at 495 uM.
For assay [19], the target named is T4, DNA polymerase alpha catalytic subunit (Homo sapiens, UniProt P09884).
T4 sequence (P09884 whole entry): T3 sequence (whole entry)
The description is as §1.

Structures are written as SMILES. The source made the active and inactive calls. The rule behind the calls is not given here.

Turning to `CCCc1cc(=O)oc2c3c(c4c(c12)OC(C)(C)C=C4)O[C@H](C)[C@@H](C)[C@@H]3O` [CALANOLIDE A], the IC50 in assay [1] turned out to be 0.32 µM; in assay [2], 205 µM.
For `CCCc1cc(=O)oc2c3c(c4c(c12)OC(C)(C)C=C4)O[C@@H](C)[C@H](C)[C@@H]3O` [COSTATOLIDE], the IC50 in assay [1] is 0.29 µM; in assay [3] it was 1.4 µM.
In the case of `C[C@H]1[C@H](C)Oc2c3c(c4c(-c5ccccc5)cc(=O)oc4c2[C@H]1O)OC(C)(C)C=C3` [SOULATTROLIDE], the inhibition was found to be 86.5% in [4]; 96.2% in assay [5]; 87.2% in [8]; 20.2% in assay [9]; 28.1% in [10]; 0.7% in assay [15]. The inhibition in assay [16] came to 29.7%; in [17], 49.6%; in assay [18], 31.5%. Also, the result in assay [6], in assay [7], in assay [12], in assay [13] and in [14] was inactive. For the same molecule, the IC50 in assay [1] was 0.34 µM; in assay [11] it was 69.5 µM; in assay [3], 0.73 µM; in assay [2] it was greater than 495 µM.
As to `Cc1cn([C@H]2C[C@H](N=[N+]=[N-])[C@@H](CO[P@](=O)(O)O[P@](=O)(O)OP(=O)(O)O)O2)c(=O)[nH]c1=O` [ZIDOVUDINE TRIPHOSPHATE], the half-inhibitory concentration (IC50) stood at 0.051 µM in assay [1], 16 µM in [2] and 11 µM in [19].
